These results are taken from patent US8048825B2, “Haloalkylsulfonanilide derivatives or salt thereof, herbicide comprising the derivatives as active ingredient, and use of the herbicide” (Nihon Nohyaku Co., Ltd., priority 2006, dated 2011).

Format in all cases: in vivo
In assay [1] the test system is Lindernia procumbens. The assay is described as follows: Herbicidal efficacy on paddy field weeds of pre-emergence stage (Pre), Test Example 1. The conditions noted are these: 1000 g/ha as active ingredient, examined after 21 days. The method in brief: (§1)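 Clay-loam pots sown with Scirpus juncoides, covered with soil containing Lindernia procumbens seed, flooded to 5 cm. Next day formulated compound applied dropwise to water at 1000 g/ha a.i. Greenhouse-grown; growth inhibition versus untreated scored 0–5 after 21 days.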

Assay [2] has as its system Scirpus juncoides. Described as above. The conditions noted are these: 1000 g/ha as active ingredient, examined after 21 days. The method in brief: as §1
For assay [3], the system named is Lindernia procumbens. Kind of assay: Herbicidal effect on paddy field weeds of post-emergence stage (Post), Test Example 2. The following applies: one-leaf stage, 1000 g/ha as active ingredient, examined after 21 days. The method in brief: (§2)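 Scirpus juncoides and Echinochloa crus-galli sown in clay loam, with Lindernia procumbens seed in the soil cover, under 5 cm flooding in greenhouse. At one-leaf stage, 1000 g/ha active ingredient applied to pot water. Efficacy scored visually 0–5 against untreated plants at 21 days after treatment.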

For assay [4], the system named is Scirpus juncoides. The description is as above. The following applies: one-leaf stage, 1000 g/ha as active ingredient, examined after 21 days. The method in brief:
as §2

A further assay deals with Echinochloa crus-galli. The description is as above. The following applies: one-leaf stage, 1000 g/ha as active ingredient, examined after 21 days. The method in brief: as §2

Each structure is given as a SMILES string.

Take `CCCCOC(=O)N(c1ccccc1CN1CCCCOC1=O)S(=O)(=O)C(F)(F)F` [2-5]: the “Lindernia procumbens pre (herbicidal effect)” value (from here on “Lindernia procumbens pre”) in the assay with Lindernia procumbens [1] was 4 (90%-99% herbicidal effect, phytotoxicity). The “Scirpus juncoides pre (herbicidal effect)” value (shortened to “Scirpus juncoides pre”) with Scirpus juncoides [2] was 4 (90%-99% herbicidal effect, phytotoxicity). The “Lindernia procumbens post (herbicidal effect)” value (“Lindernia procumbens post” for short) in the assay on Lindernia procumbens [3] is 4 (90%-99% herbicidal effect, phytotoxicity). Besides, the “Scirpus juncoides post (herbicidal effect)” value (“Scirpus juncoides post” below) in the assay with Scirpus juncoides [4] is recorded as 4 (90%-99% herbicidal effect, phytotoxicity). For the same compound, in the assay with Echinochloa crus-galli, the “Echinochloa crus-galli post (herbicidal effect)” value (“Echinochloa crus-galli post” below) was 4 (90%-99% herbicidal effect, phytotoxicity).

With `CC(C)COC(=O)N(c1ccccc1CN1CCCCOC1=O)S(=O)(=O)C(F)(F)F` [2-6], in the assay with Lindernia procumbens [1], the “Lindernia procumbens pre” value is listed as 4 (90%-99% herbicidal effect, phytotoxicity). In the assay with Scirpus juncoides [2], the “Scirpus juncoides pre” value was 4 (90%-99% herbicidal effect, phytotoxicity). The “Lindernia procumbens post” value with Lindernia procumbens [3] is given as 4 (90%-99% herbicidal effect, phytotoxicity). The “Scirpus juncoides post” value with Scirpus juncoides [4] is recorded as 4 (90%-99% herbicidal effect, phytotoxicity). The “Echinochloa crus-galli post” value in the assay on Echinochloa crus-galli was 4 (90%-99% herbicidal effect, phytotoxicity).

As to `CCOC(=O)N(c1ccccc1CN1CCCCOC1=S)S(=O)(=O)C(F)(F)F` [2-14], in the assay on Lindernia procumbens [1], the “Lindernia procumbens pre” value was 4 (90%-99% herbicidal effect, phytotoxicity). Besides, the “Scirpus juncoides pre” value in the assay with Scirpus juncoides [2] is listed as 4 (90%-99% herbicidal effect, phytotoxicity). In addition, the “Lindernia procumbens post” value in the assay on Lindernia procumbens [3] was 4 (90%-99% herbicidal effect, phytotoxicity). The “Scirpus juncoides post” value with Scirpus juncoides [4] is on record as 4 (90%-99% herbicidal effect, phytotoxicity). Also, in the assay on Echinochloa crus-galli, the “Echinochloa crus-galli post” value is 4 (90%-99% herbicidal effect, phytotoxicity).

Consider `CCCCOC(=O)N(c1ccccc1CN1CCCOC1=O)S(=O)(=O)C(F)(F)F` [Compound 1-5], for which the “Lindernia procumbens pre” value in the assay with Lindernia procumbens [1] was 4 (90%-99% herbicidal effect, phytotoxicity). Besides, in the assay on Scirpus juncoides [2], the “Scirpus juncoides pre” value is 4 (90%-99% herbicidal effect, phytotoxicity). Also, the “Lindernia procumbens post” value with Lindernia procumbens [3] was 4 (90%-99% herbicidal effect, phytotoxicity). In addition, the “Scirpus juncoides post” value in the assay with Scirpus juncoides [4] was 4 (90%-99% herbicidal effect, phytotoxicity). In the assay on Echinochloa crus-galli, the “Echinochloa crus-galli post” value is listed as 4 (90%-99% herbicidal effect, phytotoxicity).

In the case of `CC(C)COC(=O)N(c1ccccc1CN1CCCOC1=O)S(=O)(=O)C(F)(F)F` [Compound 1-6], the “Lindernia procumbens pre” value with Lindernia procumbens [1] is 4 (90%-99% herbicidal effect, phytotoxicity). Further, the “Scirpus juncoides pre” value in the assay with Scirpus juncoides [2] is 4 (90%-99% herbicidal effect, phytotoxicity). For the same compound, in the assay with Lindernia procumbens [3], the “Lindernia procumbens post” value is 4 (90%-99% herbicidal effect, phytotoxicity). Besides, the “Scirpus juncoides post” value with Scirpus juncoides [4] is on record as 4 (90%-99% herbicidal effect, phytotoxicity). In the assay with Echinochloa crus-galli, the “Echinochloa crus-galli post” value was 4 (90%-99% herbicidal effect, phytotoxicity).

For `CCCCOC(=O)N(c1ccccc1CN1CCCOC1=S)S(=O)(=O)C(F)(F)F` [Compound 1-16], in the assay with Lindernia procumbens [1], the “Lindernia procumbens pre” value is recorded as 4 (90%-99% herbicidal effect, phytotoxicity). For the same compound, the “Scirpus juncoides pre” value with Scirpus juncoides [2] is reported as 4 (90%-99% herbicidal effect, phytotoxicity). The “Lindernia procumbens post” value in the assay with Lindernia procumbens [3] is recorded as 4 (90%-99% herbicidal effect, phytotoxicity). The “Scirpus juncoides post” value in the assay on Scirpus juncoides [4] is 4 (90%-99% herbicidal effect, phytotoxicity). Besides, the “Echinochloa crus-galli post” value in the assay with Echinochloa crus-galli is on record as 4 (90%-99% herbicidal effect, phytotoxicity).

As to `CC(C)COC(=O)N(c1ccccc1CN1CCCOC1=S)S(=O)(=O)C(F)(F)F` [Compound 1-17], the “Lindernia procumbens pre” value with Lindernia procumbens [1] is given as 4 (90%-99% herbicidal effect, phytotoxicity). The “Scirpus juncoides pre” value in the assay on Scirpus juncoides [2] is reported as 4 (90%-99% herbicidal effect, phytotoxicity). Moreover, in the assay with Lindernia procumbens [3], the “Lindernia procumbens post” value is 4 (90%-99% herbicidal effect, phytotoxicity). In the assay on Scirpus juncoides [4], the “Scirpus juncoides post” value is recorded as 4 (90%-99% herbicidal effect, phytotoxicity). In the assay on Echinochloa crus-galli, the “Echinochloa crus-galli post” value is given as 4 (90%-99% herbicidal effect, phytotoxicity).

`CC1(C)COC(=O)N(Cc2ccccc2NS(=O)(=O)C(F)(F)F)C1` [Compound 1-23]: the “Lindernia procumbens pre” value with Lindernia procumbens [1] was 4 (90%-99% herbicidal effect, phytotoxicity). Further, the “Scirpus juncoides pre” value in the assay with Scirpus juncoides [2] is given as 4 (90%-99% herbicidal effect, phytotoxicity). Moreover, the “Lindernia procumbens post” value in the assay with Lindernia procumbens [3] is given as 4 (90%-99% herbicidal effect, phytotoxicity). Further, in the assay with Scirpus juncoides [4], the “Scirpus juncoides post” value is 4 (90%-99% herbicidal effect, phytotoxicity). In addition, in the assay with Echinochloa crus-galli, the “Echinochloa crus-galli post” value was 4 (90%-99% herbicidal effect, phytotoxicity).

As to `CCOC(=O)N(c1ccccc1CN1CC(C)(C)COC1=O)S(=O)(=O)C(F)(F)F` [Compound 1-25], the “Lindernia procumbens pre” value in the assay with Lindernia procumbens [1] is reported as 4 (90%-99% herbicidal effect, phytotoxicity). In addition, in the assay with Scirpus juncoides [2], the “Scirpus juncoides pre” value is reported as 4 (90%-99% herbicidal effect, phytotoxicity). Further, the “Lindernia procumbens post” value in the assay on Lindernia procumbens [3] was 4 (90%-99% herbicidal effect, phytotoxicity). The “Scirpus juncoides post” value in the assay with Scirpus juncoides [4] was 4 (90%-99% herbicidal effect, phytotoxicity). Moreover, the “Echinochloa crus-galli post” value in the assay on Echinochloa crus-galli is 4 (90%-99% herbicidal effect, phytotoxicity).

On to `CCCOC(=O)N(c1ccccc1CN1CC(C)(C)COC1=O)S(=O)(=O)C(F)(F)F` [Compound 1-26], for which the “Lindernia procumbens pre” value in the assay on Lindernia procumbens [1] was 4 (90%-99% herbicidal effect, phytotoxicity). Besides, the “Scirpus juncoides pre” value in the assay on Scirpus juncoides [2] was 4 (90%-99% herbicidal effect, phytotoxicity). Also, the “Lindernia procumbens post” value in the assay with Lindernia procumbens [3] is on record as 4 (90%-99% herbicidal effect, phytotoxicity). For the same compound, in the assay on Scirpus juncoides [4], the “Scirpus juncoides post” value is 4 (90%-99% herbicidal effect, phytotoxicity). Also, in the assay on Echinochloa crus-galli, the “Echinochloa crus-galli post” value is recorded as 4 (90%-99% herbicidal effect, phytotoxicity).

Take `CCCCOC(=O)N(c1ccccc1CN1CC(C)(C)COC1=O)S(=O)(=O)C(F)(F)F` [Compound 1-27]: in the assay on Lindernia procumbens [1], the “Lindernia procumbens pre” value is reported as 4 (90%-99% herbicidal effect, phytotoxicity). The “Scirpus juncoides pre” value with Scirpus juncoides [2] is listed as 4 (90%-99% herbicidal effect, phytotoxicity). The “Lindernia procumbens post” value with Lindernia procumbens [3] was 4 (90%-99% herbicidal effect, phytotoxicity). The “Scirpus juncoides post” value in the assay on Scirpus juncoides [4] is given as 4 (90%-99% herbicidal effect, phytotoxicity). Moreover, the “Echinochloa crus-galli post” value in the assay with Echinochloa crus-galli is listed as 4 (90%-99% herbicidal effect, phytotoxicity).

For the compound `CC(C)COC(=O)N(c1ccccc1CN1CC(C)(C)COC1=O)S(=O)(=O)C(F)(F)F` [Compound 1-28], the “Lindernia procumbens pre” value in the assay with Lindernia procumbens [1] is 4 (90%-99% herbicidal effect, phytotoxicity). In addition, the “Scirpus juncoides pre” value with Scirpus juncoides [2] is 4 (90%-99% herbicidal effect, phytotoxicity). Further, in the assay on Lindernia procumbens [3], the “Lindernia procumbens post” value is on record as 4 (90%-99% herbicidal effect, phytotoxicity). Also, the “Scirpus juncoides post” value in the assay with Scirpus juncoides [4] is 4 (90%-99% herbicidal effect, phytotoxicity). For the same compound, the “Echinochloa crus-galli post” value with Echinochloa crus-galli was 4 (90%-99% herbicidal effect, phytotoxicity).

In the case of `CCOC(=O)N(c1ccccc1CN1CC(C)(C)COC1=S)S(=O)(=O)C(F)(F)F` [Compound 1-36], the “Lindernia procumbens pre” value in the assay on Lindernia procumbens [1] was 4 (90%-99% herbicidal effect, phytotoxicity). The “Scirpus juncoides pre” value in the assay on Scirpus juncoides [2] is recorded as 4 (90%-99% herbicidal effect, phytotoxicity). Further, the “Lindernia procumbens post” value in the assay with Lindernia procumbens [3] was 4 (90%-99% herbicidal effect, phytotoxicity). The “Scirpus juncoides post” value in the assay on Scirpus juncoides [4] was 4 (90%-99% herbicidal effect, phytotoxicity). The “Echinochloa crus-galli post” value with Echinochloa crus-galli was 4 (90%-99% herbicidal effect, phytotoxicity).
